Test [1] concerns the target T1, EphA4 (Rattus norvegicus, UniProt D3ZZK3). In words: ephrinA4-induced EphA4 tyrosine phosphorylation in brain slices containing the amygdala (immunoprecipitation, Western blot). The test is classed as cell-based. More on the design: brain slices that contain the amygdala were divide to 3 groups; from tissue; host or cells: brain slices containing the amygdala. As to conditions: brain slices in Ringer's solution stimulated with ephrinA4-Fc for 20 minutes, compared to Ringer's solution control. Here is the method:
Further, brain slices that contain the amygdala were divide to 3 groups: 1) placed in Ringer's solution, 2) placed in Ringer's solution and stimulated with ephrinA4-Fc for 20 minutes or 3) placed in Ringer's solution with pep-ephrinA4 for 20 minutes followed by stimulation with ephrinA4-Fc for 20 minutes (n=3 each). Protein extracts from the slices were immunoprecipitated with anti-EphA4 antibody and subjected to Western blot with anti-EphA4 or anti-phosphotyrosine antibodies.
On the technique in general: Immunoblotting shows a protein as a band on a membrane.

A further test deals with EphB2 receptor. Particulars: control protein.
For test [2], the target named is elongation factor 2 protein (eEF2) (Rattus norvegicus, UniProt P05197). In words: Pull down experiment with pep-ephrinA4, eEF2 control protein. The test is classed as binding.
The next test deals with rats. As to conditions: subcutaneous, single dose 20 μl of 10 μg/μl, 1 hour after fear conditioning, relative to saline. On the procedure:
A fear conditioning in vivo model was performed as in example 3A, however, no cannula was introduced into the rats. […] A fear memory test was performed 24 hours after the injection.

In test [3] the target is T1, EphA4. In words: Pull down experiment with pep-ephrinA4 (FIG. 4B), EphA4. As to conditions: vs pep-control and agarose beads alone. The test is classed as binding.

T1 sequence (D3ZZK3 20-986): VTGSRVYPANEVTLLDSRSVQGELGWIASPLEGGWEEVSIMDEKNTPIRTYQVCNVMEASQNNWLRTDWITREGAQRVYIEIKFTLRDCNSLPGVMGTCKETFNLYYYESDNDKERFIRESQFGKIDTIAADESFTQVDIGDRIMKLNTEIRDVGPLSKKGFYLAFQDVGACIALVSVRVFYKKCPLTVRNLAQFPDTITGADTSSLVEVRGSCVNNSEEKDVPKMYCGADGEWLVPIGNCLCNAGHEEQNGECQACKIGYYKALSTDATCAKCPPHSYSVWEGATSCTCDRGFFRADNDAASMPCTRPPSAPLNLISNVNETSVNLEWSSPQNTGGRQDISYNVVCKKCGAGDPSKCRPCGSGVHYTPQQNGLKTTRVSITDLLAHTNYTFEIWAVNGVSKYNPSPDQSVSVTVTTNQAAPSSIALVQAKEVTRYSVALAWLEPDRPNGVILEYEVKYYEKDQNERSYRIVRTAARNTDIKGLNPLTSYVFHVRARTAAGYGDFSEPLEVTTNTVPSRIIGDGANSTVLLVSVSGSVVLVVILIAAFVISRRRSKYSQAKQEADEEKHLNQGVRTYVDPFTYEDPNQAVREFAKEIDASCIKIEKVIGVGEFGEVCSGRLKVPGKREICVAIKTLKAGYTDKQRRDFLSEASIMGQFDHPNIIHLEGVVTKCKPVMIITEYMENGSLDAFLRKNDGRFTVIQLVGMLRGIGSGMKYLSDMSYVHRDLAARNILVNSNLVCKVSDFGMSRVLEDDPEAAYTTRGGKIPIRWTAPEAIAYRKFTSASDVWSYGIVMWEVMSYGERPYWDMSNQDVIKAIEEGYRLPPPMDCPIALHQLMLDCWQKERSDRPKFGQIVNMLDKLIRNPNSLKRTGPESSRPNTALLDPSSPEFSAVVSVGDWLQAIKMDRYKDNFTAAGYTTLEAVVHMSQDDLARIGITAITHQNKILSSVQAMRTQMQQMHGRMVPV
Description for male Sprague Dawley rats: Subsequently, the neutral stimulus is administered to the groups of animals, and the animals' responses are analyzed. A test group of animals is administered a test agent which may inhibit the long term association in the memory of the animals between the neutral stimulus and the aversive event. If at a point in time about 24 hours after training the animals in the test group respond to the stimulus to a lesser degree than the animals in the control group without having other significant side effects, the test agent is determined to inhibit formation of long term memories. […] Short term memory formation was also tested in the current model by testing responses to stimulus 60 minutes after training.
In the current model, neutral stimulus provided to the animals was a tone and the aversive event was a mild footshock provided to the animals.
Long-term memory formation is believed to involve modifications in neural transmission and/or synaptic connections in neural networks in the area of the brain known as the lateral amygdala (LA.) In the current model, Peptide 1 was used a test agent and was administered directly to the LA.
In the model, male Sprague Dawley rats (each weighing about 250-300 grams), were used in the study (animals were obtained from Harlan Laboratories). In order to administer test agents to the LA of the rats, surgery was performed in which cannulas were inserted. To perform the surgery, rats were anesthetized with Xylazine 2% (15 milligrams per kilogram [mg/kg]) and Ketamine (120 mg/kg). Calmagine (Vetoquinol) (0.01 milliliters) was injected for analgesia before surgery. Guide stainless-steel cannulas (23 gauge) were implanted bilaterally 1.5 millimeters (mm) above the LA. The animals recovered for 5-7 days before behavior training.
Following surgery, rats were housed separately at 22±2° C. in a 12 hour light/dark cycle, with free access to food and water.
Rats were habituated to the training chamber and to the injection machine for 2 days for 30 min each day. On the next day the animals were subjected to the fear conditioning protocol. […]

In the case of “ephrinA4: ephrinA4-Fc used to stimulate brain slices for 20 minutes (RRQRYTPFPLGFEK)”, the “EphA4 phosphorylation after stimulation” value with EphA4 [1] is given as “significant increase”.
With “Ac-RRQRYTPFPLGFE-Lys(Biotin)-NH2-0H [peptide 1]”, the “interaction with EphB2 receptor (pull down)” value with EphB2 receptor was “did not interact”. In addition, the “interaction with elongation factor 2 protein (eEF2) (pull down)” value in test [2] is reported as “did not interact”. Further, the “freezing 24 hours after training (long term fear memory)” value in the test on male Sprague Dawley rats (0.5 μl of 10 μg/μl per amygdala into LA 30 minutes before training, vs saline, peptide 2 and misplaced peptide 1) is “froze significantly less”. Further, in the test with male Sprague Dawley rats (LA microinjection, compared to controls), the “rate of fear reduction over the trials” value is recorded as “did not alter”. For the same substance, the “freezing 1 hour after training (formation of short term memory)” value with male Sprague Dawley rats (LA microinjection, no main effect for groups (p>0.4)) is reported as “does not inhibit”. Besides, the “freezing in fear memory test 24 hours after the injection” value in the test on rats is “significantly reducing freezing”. The “interaction with EphA4 (pull down)” value at EphA4 [3] is on record as “interacts”.
For the substance “Ac-RRWSGYEACTAEG-Lys(Biotin)-NH2-0H [peptide 2, reference compound]”, the “interaction with EphA4 (pull down)” value at EphA4 [3] was “not”.

For the origin of these results see patent publication US9765116B2, “Inhibitors of the Eph-A receptor and uses thereof” (Carmel Haifa University Economic Corporation Ltd., priority 2013, dated 2017).
